Measured values from US10183944B2 (Asana Biosciences, LLC, priority 2011, dated 2019).
Counter-ions that a name gives are not always drawn. Like-named read-outs stand apart in the source and are kept apart here.

How the values were obtained:
RBL2H3 cells = assay: Degranulation assay: β-hexosaminidase release during immune complex mediated degranulation; type: cell-based, rat; conditions: Rattus norvegicus, RBL-2H3; for inhibition at 1 µM: read-out: Degranulation % inhibition at 1 μM; for EC50: read-out: Degranulation EC50
Experimental: The objective of this assay was to examine by Fluorescence method the effect of compounds on β-hexosaminidase release during immune complex mediated degranulation in RBL2H3 cells. Compounds were tested for their ability to inhibit the ability of this immune complex to mediate β-hexosaminidase release, in an enzyme assay with […] as substrate. […] Emission 460 nm). [table] [table] RBL2H3 cells were maintained in MEM complete media containing 10% FBS at 70%-80% confluence in a mammalian cell culture CO2 incubator with 5% CO2 at 37° C. 2×10^5 cells/well were plated in 1 mL of complete media and incubated for 5 hours for cell attachment. Complete media was replaced with 1 mL of serum free MEM media containing 1.2 μg/mL of anti-DNP rat IgE as sensitizing agent and further incubated overnight with 5% CO2 at 37° C. […] Cells were further stimulated with 5 μg/mL of DNP-BSA for 60 minutes. Plates were centrifuged for 5 minutes at 1000 rpm and 25 μL of culture supernatant was transferred from each assay well into a 96 well black coated plate. 25 μL β-NAG substrate was added to this mixture and incubated at room temperature for 30 minutes. The reaction was terminated with 100 μL of stop solution and fluorescence was monitored. (Excitation 355 nm; Emission 460 nm) See, Sanderson, (2010), Cellular Immunology, 262(1): 28-34 and Silverman, (2006) MCB, 26(5):1826-1838, which are incorporated herein by reference. The % release of β-Hexosaminidase for the test compound was calculated using the following formula: RBL2H3 cells were maintained in MEM complete media containing 10% FBS at 70-80% confluence in a mammalian cell culture CO2 incubator with 5% CO2 at 37° C. 5×10^4 cells/well were plated in 200 μL of complete media containing 0.3 μg/mL of anti-DNP rat IgE as sensitizing agent for 24 hours at 37° C. & 5% CO2. The following day, cells were washed twice with PIPES buffer for 10 minutes at 37° C. and replenished with serum free MEM media. Cells were treated with various concentrations of test compounds (in 0.5% DMSO) for 15 minutes at 37° C. and 5% CO2. The cells were further stimulated with 0.1 μg/mL of DNP-BSA for 45 minutes. The plates were spun for 5 minutes at 2000 rpm and 25 μL of culture supernatant was then transferred from each assay well into a 96 well black coated plate. […] β-NAG substrate was added and incubated at RT for 30 minutes. After incubation with substrate, 150 μL of stop solution was added and fluorescence was monitored. (Excitation 355 nm; Emission 460 nm). See, Yamamoto, JPET, 306(3):1174-1181 (2003) and Taylor, MCB, 15(8): 4149-4157 (1995), which are herein incorporated by reference. Release of β-hexosaminidase during the degranulation process by immune complex mediated FcεRI stimulation is through the SYK pathway. The % inhibition of β-hexosaminidase release by Syk inhibitor gives information with regard to its Syk inhibition potency.

JAK2 = JAK2 (Homo sapiens (Human), UniProt O60674); assay: Inhibition of enzymatic JAK2 kinase activity (TR-FRET); type: biochemical; conditions: read-out: IC50 JAK
Summary of the method: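 TR-FRET read-out (Eu antibody donor, Ulight poly Glu-Tyr acceptor, 665/615 nm ratio) after a 60 min RT kinase reaction with ATP, begun following 30 min compound–enzyme preincubation. Stopped by EDTA; inhibition expressed as 100 minus % activity of positive control.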

[1] = biological target: Syk (356-635 amino acids) catalytic domain (Homo sapiens (Human), UniProt P43405); assay: Inhibition of enzymatic Syk kinase activity (radiometric); type: biochemical; conditions: read-out: IC50 Syk
Summary of the method: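 Radiometric filter-binding format: 32P transfer from γ-32P-ATP onto pG4T, scintillation-counted after acid washes of P81 paper. Syk kinase domain (356-635), 0.035–7.5 ng per reaction, was exposed to compound for 30 minutes at room temperature before a 10-minute, 30° C. reaction with ATP (100 μM stock). Inhibition derived from counts with versus without compound.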

[2] = Assay Protocol A (24 well format)
[3] = Assay Protocol B (96 well format)

Chain of JAK2 (O60674 808-1132): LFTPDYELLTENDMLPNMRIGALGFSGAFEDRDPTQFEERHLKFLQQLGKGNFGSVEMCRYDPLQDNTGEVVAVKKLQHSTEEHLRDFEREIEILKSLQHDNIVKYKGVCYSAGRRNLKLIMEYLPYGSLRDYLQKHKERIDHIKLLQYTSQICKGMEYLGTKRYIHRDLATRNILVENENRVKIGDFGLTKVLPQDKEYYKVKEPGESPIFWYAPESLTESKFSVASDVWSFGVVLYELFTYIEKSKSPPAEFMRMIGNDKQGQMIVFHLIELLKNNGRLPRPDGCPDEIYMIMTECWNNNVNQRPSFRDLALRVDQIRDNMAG

| IC50 (JAK2) | IC50 [1] | IC50 ([1]; hydrochloride) | EC50 (RBL2H3 cells; [3]) | Structure (SMILES) | inhibition at 1 µM (RBL2H3 cells; [2]) | inhibition at 1 µM (RBL2H3 cells; [3]) |
| --- | --- | --- | --- | --- | --- | --- |
| < 100 nM | < 50 nM |  |  | O=c1[nH]ncc2nc(-c3ccccc3)nc(Nc3ccc(N(CCO)CCO)cc3)c12 [Example 10, 4-(4-(bis(2-hydroxyethyl)amino)phenylamino)-2-phenylpyrimido[4,5-d]pyridazin-5(6H)-one] | 100% |  |
| < 100 nM |  | < 50 nM |  | NCC(=O)N1CCN(c2ccc(Nc3nc(-c4ccccc4)nc4cn[nH]c(=O)c34)cc2)CC1 [Example 11, 4-(4-(4-(2-aminoacetyl)piperazin-1-yl)phenylamino)-2-phenylpyrimido[4,5-d]pyridazin-5(6H)-one hydrochloride] | 100% |  |
| < 100 nM | < 10 nM |  |  | O=c1[nH]ncc2nc(-c3ccsc3)nc(Nc3ccc(CN4CCNCC4)cc3)c12 [Example 24, 4-(4-(piperazin-1-ylmethyl)phenylamino)-2-(thiophen-3-yl) pyrimido[4,5-d]pyridazin-5(6H)-one hydrochloride] |  | 83% |
| < 100 nM | < 50 nM |  |  | O=C(O)C1CC12CCN(c1nc(Nc3ccc(CN4CCNCC4)cc3)c3c(=O)[nH]ncc3n1)CC2 (centres unmarked) [Example 25, 6-(5-oxo-4-(4-(piperazin-1-ylmethyl)phenylamino)-5,6-dihydropyrimido[4,5-d]pyridazin-2-yl)-6-azaspiro[2.5]octane-1-carboxylic acid hydrochloride] | 79% |  |
| < 100 nM | < 10 nM |  |  | CCN1CCN(c2ccc(Nc3nc(N4CCOCC4)nc4cn[nH]c(=O)c34)cc2)CC1 [Example 26, 4-(4-(4-ethylpiperazin-1-yl)phenylamino)-2-morpholinopyrimido[4,5-d]pyridazin-5(6H)-one] |  | 67% |
| < 50 nM | < 50 nM |  |  | O=c1[nH]ncc2nc(N3CCCCC3)nc(Nc3ccc(CN4CCNCC4)cc3)c12 [Example 30, 4-(4-(piperazin-1-ylmethyl)phenylamino)-2-(piperidin-1-yl)pyrimido[4,5-d]pyridazin-5(6H)-one hydrochloride] |  | 99% |
| > 100 nM | < 50 nM |  |  | O=c1[nH]ncc2nc(-c3ccc4c(c3)OCO4)nc(Nc3ccc(CN4CCNCC4)cc3)c12 [Example 33, 2-(benzo[d][1,3]dioxol-5-yl)-4-(4-(piperazin-1-ylmethyl)phenylamino) pyrimido[4,5-d]pyridazin-5(6H)-one hydrochloride] |  | 58% |
| < 50 nM | < 50 nM |  | 378 nM | O=C(O)CC1CCN(c2ccc(Nc3nc(-c4ccccc4)nc4cn[nH]c(=O)c34)cc2)CC1 [Example 34, 2-(1-(4-(5-oxo-2-phenyl-5,6-dihydropyrimido[4,5-d]pyridazin-4-ylamino)phenyl)piperidin-4-yl)acetic acid] |  | 80% |
| < 50 nM | < 50 nM |  |  | O=C(O)C1CCN(Cc2ccc(Nc3nc(-c4ccccc4)nc4cn[nH]c(=O)c34)cc2)CC1 [Example 35, 1-(4-(5-oxo-2-phenyl-5,6-dihydropyrimido[4,5-d]pyridazin-4-ylamino)benzyl)piperidine-4-carboxylic acid] |  | 19% |
| < 50 nM | < 50 nM |  |  | O=C(O)C1CC12CCN(c1ccc(Nc3nc(-c4ccsc4)nc4cn[nH]c(=O)c34)cc1)CC2 (centres unmarked) [Example 39, 6-(4-(5-oxo-2-(thiophen-3-yl)-5,6-dihydropyrimido[4,5-d]pyridazin-4-ylamino)phenyl)-6-azaspiro[2.5]octane-1-carboxylic acid] |  | 100% |
| < 100 nM | < 50 nM |  |  | O=C(O)CC1CCN(c2nc(Nc3ccc(CN4CCNCC4)cc3)c3c(=O)[nH]ncc3n2)CC1 [Example 43, 2-(1-(5-oxo-4-((4-(piperazin-1-ylmethyl)phenyl)amino)-5,6-dihydropyrimido[4,5-d]pyridazin-2-yl)piperidin-4-yl)acetic acid hydrochloride] |  | 13% |
| < 100 nM | < 100 nM |  | 132 nM | COc1cccc(-c2nc(Nc3ccc(N4CCC5(CC4)CC5C(=O)O)cc3)c3c(=O)[nH]ncc3n2)c1 (centres unmarked) [Example 47, 6-(4-((2-(3-methoxyphenyl)-5-oxo-5,6-dihydropyrimido[4,5-d]pyridazin-4-yl)amino)phenyl)-6-azaspiro[2.5]octane-1-carboxylic acid] |  | 100% |
| < 100 nM | < 100 nM |  |  | O=c1[nH]ncc2nc(N3CCCC3)nc(Nc3ccc(CN4CCNCC4)cc3)c12 [Example 48, 4-((4-(piperazin-1-ylmethyl)phenyl)amino)-2-(pyrrolidin-1-yl)pyrimido[4,5-d]pyridazin-5(6H)-one hydrochloride] |  | 100% |
| > 100 nM | < 10 nM |  |  | CCOc1nc(Nc2ccc(CN3CCNCC3)cc2)c2c(=O)[nH]ncc2n1 [Example 50, 2-ethoxy-4-((4-(piperazin-1-ylmethyl)phenyl)amino)pyrimido[4,5-d]pyridazin-5(6H)-one hydrochloride] |  | 49% |
| < 10 nM | < 10 nM |  | 1 nM | O=c1[nH]ncc2nc(N3CCCCCC3)nc(Nc3ccc(CN4CCNCC4)cc3)c12 [Example 52, 2-(azepan-1-yl)-4-((4-(piperazin-1-ylmethyl)phenyl)amino)pyrimido[4,5-d]pyridazin-5(6H)-one hydrochloride] |  | 100% |
| < 10 nM | < 10 nM |  | 13 nM | CC(C)N(c1nc(Nc2ccc(CN3CCNCC3)cc2)c2c(=O)[nH]ncc2n1)C(C)C [Example 54, 2-(diisopropylamino)-4-((4-(piperazin-1-ylmethyl)phenyl)amino)pyrimido[4,5-d]pyridazin-5(6H)-one hydrochloride] |  | 100% |
| < 10 nM | < 10 nM |  | 18 nM | O=c1[nH]ncc2nc(N3CCCCCC3)nc(Nc3ccc(N4CCOCC4)cc3)c12 [Example 60, 2-(azepan-1-yl)-4-((4-morpholinophenyl)amino)pyrimido[4,5-d]pyridazin-5(6H)-one] |  | 100% |
| > 100 nM | > 100 nM |  | 1020 nM | N#CCC1CCN(c2nc(Nc3ccc(N4CCC(CC(=O)O)CC4)cc3)c3c(=O)[nH]ncc3n2)CC1 [Example 71, 2-(1-(4-((2-(4-(cyanomethyl)piperidin-1-yl)-5-oxo-5,6-dihydropyrimido[4,5-d]pyridazin-4-yl)amino)phenyl)piperidin-4-yl)acetic acid] |  | 65% |
| < 10 nM | < 10 nM |  | 76 nM | O=C(O)CC1CCN(c2ccc(Nc3nc(N4CCCCCCC4)nc4cn[nH]c(=O)c34)cc2)CC1 [Example 88, 2-(1-(4-((2-(azocan-1-yl)-5-oxo-5,6-dihydropyrimido[4,5-d]pyridazin-4-yl)amino)phenyl)piperidin-4-yl)acetic acid] |  | 100% |
| < 50 nM | < 10 nM |  | 154 nM | O=C(O)CC1CCC(c2ccc(Nc3nc(N4CCCCCC4)nc4cn[nH]c(=O)c34)cc2)CC1 (centres unmarked) [Example 91, 2-(4-(4-((2-(azepan-1-yl)-5-oxo-5,6-dihydropyrimido[4,5-d]pyridazin-4-yl)amino)phenyl)cyclohexyl)acetic acid] |  | 100% |
